Structures can show the parent of a compound that is named as a salt.
How the values were obtained:
[1] = target: Rat recombinant PDE10a (rPDE10a) (Rattus norvegicus (Rat), UniProt Q9QYJ6); assay: In vitro assay PDE10a: rat recombinant PDE10a SPA with 3H-cAMP substrate, IC50; type: biochemical; conditions: 60 nM cAMP, read-out: rPDE10a2 IC50
Method: In Vitro Assay PDE10a Rat recombinant PDE10a (rPDE10a) was expressed in Sf9 cells using a recombinant rPDE10a baculovirus construct. Cells were harvested after 48 h of infection and the rPDE10a protein was purified by metal chelate chromatography on Ni-sepharose 6FF. Tested compounds were dissolved and diluted in 100% DMSO to a concentration 100 fold of the final concentration in the assay. […] The reaction was incubated for 60 min at rt. After incubation, the reaction was stopped with 20 μL of 17.8 mg/mL PDE SPA beads. […] For blank values the enzyme was omitted from the reaction and replaced by incubation buffer.

[2] = target: Human recombinant PDE10A2 (Homo sapiens (Human), UniProt Q9Y233); assay: In vitro hPDE10a: human recombinant PDE10A2 scintillation proximity assay, IC50; type: biochemical; conditions: human recombinant PDE10A2, SPA, 60 nM cAMP; read-out: hPDE10a2 IC50
Human recombinant PDE10A2, sequence (Q9Y233 267-1055): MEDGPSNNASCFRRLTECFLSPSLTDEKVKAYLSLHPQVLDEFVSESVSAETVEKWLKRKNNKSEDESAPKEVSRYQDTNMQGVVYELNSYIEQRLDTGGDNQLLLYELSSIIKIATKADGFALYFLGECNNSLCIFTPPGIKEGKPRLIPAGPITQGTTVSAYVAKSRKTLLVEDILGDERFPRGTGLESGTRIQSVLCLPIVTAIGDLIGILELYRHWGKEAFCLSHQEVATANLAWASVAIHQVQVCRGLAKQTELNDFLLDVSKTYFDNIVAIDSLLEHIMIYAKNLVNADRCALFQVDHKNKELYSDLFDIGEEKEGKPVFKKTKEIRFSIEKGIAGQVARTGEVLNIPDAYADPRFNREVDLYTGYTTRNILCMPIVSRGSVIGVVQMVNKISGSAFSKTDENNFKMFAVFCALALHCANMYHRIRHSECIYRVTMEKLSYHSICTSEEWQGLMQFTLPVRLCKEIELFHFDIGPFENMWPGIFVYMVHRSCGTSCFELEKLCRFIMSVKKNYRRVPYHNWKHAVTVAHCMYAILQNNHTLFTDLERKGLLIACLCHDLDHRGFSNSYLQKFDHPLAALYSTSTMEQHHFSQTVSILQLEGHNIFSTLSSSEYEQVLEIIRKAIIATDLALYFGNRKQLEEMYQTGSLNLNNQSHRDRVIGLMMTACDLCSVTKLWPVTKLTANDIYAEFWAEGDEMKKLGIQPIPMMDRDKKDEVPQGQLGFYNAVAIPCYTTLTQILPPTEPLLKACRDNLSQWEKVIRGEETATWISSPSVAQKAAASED
Method: Cells were harvested and the phosphodiesterase protein was purified by metal chelate chromatography on Ni-sepharose 6FF. The affinity of the compounds of Formula (I) for phophodiesterases (PDE) was measured by a scintillation proximity assay (SPA). PDE Yttrium Silicate SPA beads allow PDE activity to be measured by direct binding of the primary phosphate groups of non-cyclic AMP or GMP to the beads via a complex iron chelation mechanism. The amount of bound tritiated product ([^3H]-AMP) is measured by liquid scintillation counting. The compounds were dissolved and diluted in 100% DMSO in polystyrene plates to a concentration of 100-fold the final concentration in the assay. […] After incubation, the reaction was stopped with 20 μL of stop solution, consisting of PDE SPA beads (17.8 mg beads/mL in 18 mM zinc sulphate). […] To measure the low control, no enzyme was added to the reaction mixture. Data were calculated as the percentage of inhibition of total activity measured in the absence of test compound (% control). […] For compounds tested more than once, the data points were aggregated.

Rat recombinant PDE10a (rPDE10a), sequence (Q9QYJ6 whole entry): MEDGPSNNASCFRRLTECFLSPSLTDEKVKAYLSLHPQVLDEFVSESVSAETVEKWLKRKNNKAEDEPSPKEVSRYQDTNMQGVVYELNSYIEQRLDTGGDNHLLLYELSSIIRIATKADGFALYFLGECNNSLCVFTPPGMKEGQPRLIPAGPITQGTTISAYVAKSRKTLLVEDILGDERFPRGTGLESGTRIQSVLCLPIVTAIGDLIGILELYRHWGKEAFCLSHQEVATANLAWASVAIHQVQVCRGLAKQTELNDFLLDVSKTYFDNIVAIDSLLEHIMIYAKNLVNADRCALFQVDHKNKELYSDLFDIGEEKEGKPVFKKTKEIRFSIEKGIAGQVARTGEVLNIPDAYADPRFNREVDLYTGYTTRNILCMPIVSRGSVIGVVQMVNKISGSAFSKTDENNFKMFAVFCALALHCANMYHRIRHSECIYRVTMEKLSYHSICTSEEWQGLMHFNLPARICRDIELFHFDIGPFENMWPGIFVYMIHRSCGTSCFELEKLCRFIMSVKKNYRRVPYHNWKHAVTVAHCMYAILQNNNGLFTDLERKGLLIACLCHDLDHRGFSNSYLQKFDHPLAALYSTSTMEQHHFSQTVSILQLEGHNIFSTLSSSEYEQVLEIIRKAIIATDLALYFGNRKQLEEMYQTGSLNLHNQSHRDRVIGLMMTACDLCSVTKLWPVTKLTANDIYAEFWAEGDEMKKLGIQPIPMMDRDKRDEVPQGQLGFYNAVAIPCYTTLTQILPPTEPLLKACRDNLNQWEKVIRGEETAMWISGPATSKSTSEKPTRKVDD

SMILES	IC50 [1]	IC50 [2]
C(=C\c1nc2c(N3CCOCC3)ccnn2c1-c1ccc(Sc2cnn[nH]2)nc1)/c1ccc2ccccc2n1 [Cpd 23, 2-[(E)-2-{8-Morpholin-4-yl-3-[6-(1H-1,2,3-triazol-5-ylsulfanyl)pyridin-3-yl]imidazo[1,2-b]pyridazin-2-yl}ethenyl]quinoline]	6 nM	8 nM
c1ccc2nc(CCc3nc4c(N5CCOCC5)ccnn4c3-c3ccc(-c4nnn[nH]4)nc3)ccc2c1 [Cpd 31, 4-(3-(6-(1H-Tetrazol-5-yl)pyridin-3-yl)-2-(2-(quinolin-2-yl)ethyl)imidazo[1,2-b]pyridazin-8-yl)morpholine trifluoroacetic acid salt]	< 1 nM	1 nM
O=C(O)c1ccc(Nc2c(/C=C/c3ccc4ccccc4n3)nc3c(N4CCOCC4)ccnn23)c(F)c1 [Cpd 139, (E)-3-Fluoro-4-((8-morpholino-2-(2-(quinolin-2-yl)vinyl)imidazo[1,2-b]pyridazin-3-yl)amino)benzoic acid]	2 nM	1 nM
C(=C\c1nc2c(N3CCOCC3)ccnn2c1-c1cccc(-c2nnn[nH]2)c1)/c1ccc2ccccc2n1 [Cpd 105, (E)-4-(3-(3-(1H-Tetrazol-5-yl)phenyl)-2-(2-(quinolin-2-yl)vinyl)imidazo[1,2-b]pyridazin-8-yl)morpholine trifluoroacetic acid salt]	5 nM	4 nM
O=C(O)CCNc1ccc(-c2c(/C=C/c3ccc4ccccc4n3)nc3c(N4CCOCC4)ccnn23)cc1 [Cpd 93, (E)-3-(4-(8-Morpholino-2-(2-(quinolin-2-yl)vinyl)imidazo[1,2-b]pyridazin-3-yl)phenylamino)propanoic acid trifluoroacetic acid salt]	3 nM	3 nM
C(=C\c1nc2c(N3CCOCC3)ccnn2c1-c1ccc(-c2nnn[nH]2)cc1)/c1ccc2ccccc2n1 [compound 176, (E)-4-(3-(4-(1H-Tetrazol-5-yl)phenyl)-2-(2-(quinolin-2-yl)vinyl)imidazo[1,2-b]pyridazin-8-yl)morpholine]	6 nM	6 nM
O=C(O)c1ccc(-c2c(CCc3ccc4c(n3)CCCC4)nc3c(N4CCOCC4)ccnn23)cc1 [Cpd 79, 4-(8-Morpholino-2-(2-(5,6,7,8-tetrahydroquinolin-2-yl)ethyl)imidazo[1,2-b]pyridazin-3-yl)benzoic acid trifluoroacetic acid salt]	8 nM	3 nM
COc1cccc(-c2c(/C=C/c3ccc4c(C(=O)NS(C)(=O)=O)cccc4n3)nc3c(N4CCOCC4)ccnn23)c1 [Cpd 150, (E)-2-(2-(3-(3-Methoxyphenyl)-8-morpholinoimidazo[1,2-b]pyridazin-2-yl)vinyl)-N-(methylsulfonyl)quinoline-5-carboxamide]	6 nM	6 nM
Cn1nc(-c2ccc(-c3c(CCc4ccc5ccccc5n4)nc4c(N5CCOCC5)ccnn34)cc2)[nH]c1=O [Cpd 78, 1-Methyl-3-[4-[8-(morpholin-4-yl)-2-[2-(quinolin-2-yl)ethyl]imidazo[1,2-b]pyridazin-3-yl]phenyl]-4,5-dihydro-1H-1,2,4-triazol-5-one]	20 nM	15 nM
O=C(O)c1ccc(-c2c(/C=C/c3ccc4ccccc4n3)nc3c(N4CCOCC4)ccnn23)nc1 [compound 113, (E)-6-(8-Morpholino-2-(2-(quinolin-2-yl)vinyl)imidazo[1,2-b]pyridazin-3-yl)nicotinic acid]	2 nM	2 nM
CS(=O)(=O)NC(=O)Nc1ccc(-c2c(/C=C/c3ccc4ccccc4n3)nc3c(N4CCOCC4)ccnn23)cc1 [compound 50, (E)-N-((4-(8-Morpholino-2-(2-(quinolin-2-yl)vinyl)imidazo[1,2-b]pyridazin-3-yl)phenyl)carbamoyl)methanesulfonamide]	3 nM	8 nM
Oc1c(F)cc(-c2c(/C=C/c3ccc4ccccc4n3)nc3c(N4CCOCC4)ccnn23)cc1F [compound 80, (E)-2,6-Difluoro-4-(8-morpholino-2-(2-(quinolin-2-yl)vinyl)imidazo[1,2-b]pyridazin-3-yl)phenol]	2 nM	< 1 nM
O=C(O)CCNC(=O)c1ccc(-c2c(CCc3ccc4ccccc4n3)nc3c(N4CCOCC4)ccnn23)cc1 [compound 46, 3-(4-(8-Morpholino-2-(2-(quinolin-2-yl)ethyl)imidazo[1,2-b]pyridazin-3-yl)benzamido)propanoic acid]	1 nM	3 nM
O=C(O)C1CCN(c2c(/C=C/c3ccc4ccccc4n3)nc3c(N4CCOCC4)ccnn23)CC1 [Cpd 131, (E)-1-(8-Morpholino-2-(2-(quinolin-2-yl)vinyl)imidazo[1,2-b]pyridazin-3-yl)piperidine-4-carboxylic acid trifluoroacetic acid salt]	5 nM	7 nM
O=C(O)c1ccc(-c2c(CCc3ccc4ccccc4n3)nc3c(N4CCOCC4)ccnn23)s1 [compound 61, 5-(8-Morpholino-2-(2-(quinolin-2-yl)ethyl)imidazo[1,2-b]pyridazin-3-yl)thiophene-2-carboxylic acid]	< 1 nM	< 1 nM
O=C(NO)c1cccc2nc(/C=C/c3cn4nccc(N5CCOCC5)c4n3)ccc12 [Cpd 118, N-Hydroxy-2-[(E)-2-(8-morpholin-4-ylimidazo[1,2-b]pyridazin-2-yl)ethenyl]quinoline-5-carboxamide]	1 nM	< 1 nM
O=C(O)c1ccc(-c2c(C#Cc3nc4ccccc4[nH]3)nc3c(N4CCOCC4)ccnn23)cc1 [Cpd 108, 4-(2-((1H-Benzo[d]imidazol-2-yl)ethynyl)-8-morpholinoimidazo[1,2-b]pyridazin-3-yl)benzoic acid]	< 1 nM	< 1 nM
CS(=O)(=O)Nc1ccc(-c2c(/C=C/c3ccc4ccccc4n3)nc3c(N4CCOCC4)ccnn23)cc1 [compound 47, (E)-N-(4-(8-Morpholino-2-(2-(quinolin-2-yl)vinyl)imidazo[1,2-b]pyridazin-3-yl)phenyl)methanesulfonamide]	11 nM	14 nM
CS(=O)(=O)NC(=O)CCc1ccc(-c2c(/C=C/c3ccc4ccccc4n3)nc3c(N4CCOCC4)ccnn23)cc1 [Cpd 132, (E)-N-(Methylsulfonyl)-3-(4-(8-morpholino-2-(2-(quinolin-2-yl)vinyl)imidazo[1,2-b]pyridazin-3-yl)phenyl)propanamide trifluoroacetic acid salt]	15 nM	11 nM
COc1cccc(C#Cc2nc3c(N4CCOCC4)ccnn3c2-c2ccc(C(=O)O)cc2)n1 [Cpd 109, 4-(2-((6-Methoxypyridin-2-yl)ethynyl)-8-morpholinoimidazo[1,2-b]pyridazin-3-yl)benzoic acid]	< 1 nM	< 1 nM
CS(=O)(=O)NC(=O)c1cccc2nc(/C=C/c3nc4c(N5CCOCC5)ccnn4c3-c3ccccn3)ccc12 [Cpd 145, (E)-N-(Methylsulfonyl)-2-(2-(8-morpholino-3-(pyridin-2-yl)imidazo[1,2-b]pyridazin-2-yl)vinyl)quinoline-5-carboxamide]	2 nM	4 nM
C(#Cc1cn2nccc(N3CCOCC3)c2n1)c1ccc2ccccc2n1 [Cpd 84, 2-[(8-Morpholin-4-ylimidazo[1,2-b]pyridazin-2-yl)ethynyl]quinoline]	< 1 nM	< 1 nM
O=C(O)c1cccc2nc(/C=C/c3nc4c(N5CCOCC5)ccnn4c3-c3cccnc3)ccc12 [Cpd 137, (E)-2-(2-(8-Morpholino-3-(pyridin-3-yl)imidazo[1,2-b]pyridazin-2-yl)vinyl)quinoline-5-carboxylic acid sodium salt]	1 nM	3 nM
c1ccc2nc(CCc3nc4c(N5CCOCC5)ccnn4c3-c3ccc(N4CCNCC4)nc3)ccc2c1 [Cpd 13, 4-(3-(6-(piperazin-1-yl)pyridin-3-yl)-2-(2-(quinolin-2-yl)ethyl)imidazo[1,2-b]pyridazin-8-yl)morpholine trifluoroacetic acid salt]	14 nM	20 nM
c1ccc2ncc(OCCc3nc4c(N5CCOCC5)ccnn4c3-c3ccc(N4CCNCC4)nc3)cc2c1 [Cpd 14, 4-(3-(6-(Piperazin-1-yl)pyridin-3-yl)-2-(2-(quinolin-3-yloxy)ethyl)imidazo[1,2-b]pyridazin-8-yl)morpholine trifluoroacetic acid salt]	776 nM	955 nM
O=C(O)CCNC(=O)c1ccc(-c2c(C#Cc3ccc4ccccc4n3)nc3c(N4CCOCC4)ccnn23)cc1 [compound 82, 3-(4-(8-Morpholino-2-(quinolin-2-ylethynyl)imidazo[1,2-b]pyridazin-3-yl)benzamido)propanoic acid]	2 nM	< 1 nM
Clc1cc(N2CCOCC2)c2nc([C@H]3C[C@H](c4ccc5ccccc5n4)C3)cn2n1 [Cpd 130, 2-[trans-3-(6-Chloro-8-morpholin-4-ylimidazo[1,2-b]pyridazin-2-yl)cyclobutyl]quinoline]	30 nM	19 nM

Source: US9193736B2, “PDE 10a inhibitors for the treatment of type II diabetes” (Janssen Pharmaceutica, NV, priority 2013, dated 2015)
